According to PubChem BioAssay AID1963866 (Molecular Pharmacology Branch, DTP, NCI, 2024):

System: PDC KRAS tumor spheroids with HUVEC/MSC, viability
Test: Anticancer human tumor 349418-098-R-PDC patient-derived lung adenocarcinoma cell line growth inhibition [KRAS2]
Settings: for IC50: curve of first compound; for viability, T/C: stronger effect = lower value
In short: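 KRAS-mutant tumor cells were grown as spheroids with HUVEC endothelial cells and human MSCs as stroma. Targeted agents were tested alone and with KRAS pathway inhibitors. Doses started at or near clinical Cmax, or 10 microM, descending half-log.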

[1] = second compound 0.1 µM, first compound 0.0316 µM
[2] = second compound 0.1 µM, first compound 0.1 µM
[3] = second compound 0.316 µM, first compound 0.0316 µM
[4] = second compound 0.316 µM, first compound 0.1 µM
[5] = second compound 1 µM, first compound 0.0316 µM
[6] = second compound 1 µM, first compound 0.1 µM
[7] = second compound 3.16 µM, first compound 0.0316 µM
[8] = second compound 3.16 µM, first compound 0.1 µM
[9] = second compound 10 µM, first compound 0.0316 µM
[10] = second compound 10 µM, first compound 0.1 µM
[11] = second compound 0.1 µM, first compound 0.000316 µM
[12] = second compound 0.1 µM, first compound 0.001 µM
[13] = second compound 0.1 µM, first compound 0.00316 µM
[14] = second compound 0.1 µM, first compound 0.01 µM
[15] = second compound 0.316 µM, first compound 0.000316 µM
[16] = second compound 0.316 µM, first compound 0.001 µM
[17] = second compound 0.316 µM, first compound 0.00316 µM
[18] = second compound 0.316 µM, first compound 0.01 µM
[19] = second compound 1 µM, first compound 0.000316 µM
[20] = second compound 1 µM, first compound 0.001 µM
[21] = second compound 1 µM, first compound 0.00316 µM
[22] = second compound 1 µM, first compound 0.01 µM
[23] = second compound 3.16 µM, first compound 0.000316 µM
[24] = second compound 3.16 µM, first compound 0.001 µM
[25] = second compound 3.16 µM, first compound 0.00316 µM
[26] = second compound 3.16 µM, first compound 0.01 µM
[27] = second compound 10 µM, first compound 0.000316 µM
[28] = second compound 10 µM, first compound 0.001 µM
[29] = second compound 10 µM, first compound 0.00316 µM
[30] = second compound 10 µM, first compound 0.01 µM
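Note: spheroids exposed to compounds for seven days before readout.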

SMILES | IC50 (second compound 0.1 µM) [µM] | IC50 (second compound 0.316 µM) [µM] | IC50 (second compound 1 µM) [µM] | IC50 (second compound 3.16 µM) [µM] | IC50 (second compound 10 µM) [µM] | viability, T/C [1] [%] | viability, T/C [2] [%] | viability, T/C [3] [%] | viability, T/C [4] [%] | viability, T/C [5] [%] | viability, T/C [6] [%] | viability, T/C [7] [%] | viability, T/C [8] [%] | viability, T/C [9] [%] | viability, T/C [10] [%] | viability, T/C [11] [%] | viability, T/C [12] [%] | viability, T/C [13] [%] | viability, T/C [14] [%] | viability, T/C [15] [%] | also measured
COc1cc(Nc2ncc3c(n2)-c2ccc(Cl)cc2C(c2c(F)cccc2OC)=NC3)ccc1C(=O)O + CC1OCC2(CCN(c3cnc(Sc4ccnc(N)c4Cl)c(N)n3)CC2)C1N | 0.0431 | 0.0436 | 0.0502 | < 0.0316 | 0.0336 | 56.5 | 32.4 | 57.4 | 27.8 | 57.4 | 35.4 | 39.4 | 36.3 | 51 | 33.5 | – | – | – | – | – | viability, T/C (second compound 0.1 µM, first compound 0.316 µM): 32.4%; viability, T/C (second compound 0.1 µM, first compound 1 µM): 40.1%; viability, T/C (second compound 0.1 µM, first compound 3.16 µM): 30.8%; viability, T/C (second compound 0.1 µM, first compound 10 µM): 24%; viability, T/C (second compound 0.316 µM, first compound 0.316 µM): 38.8%; viability, T/C (second compound 0.316 µM, first compound 1 µM): 26.4%; viability, T/C (second compound 0.316 µM, first compound 3.16 µM): 40.2%; viability, T/C (second compound 0.316 µM, first compound 10 µM): 20.4%; viability, T/C (second compound 1 µM, first compound 0.316 µM): 39%; viability, T/C (second compound 1 µM, first compound 1 µM): 38.1%; viability, T/C (second compound 1 µM, first compound 3.16 µM): 27.3%; viability, T/C (second compound 1 µM, first compound 10 µM): 25%; viability, T/C (second compound 3.16 µM, first compound 0.316 µM): 28%; viability, T/C (second compound 3.16 µM, first compound 1 µM): 28.7%; viability, T/C (second compound 3.16 µM, first compound 3.16 µM): 32.9%; viability, T/C (second compound 3.16 µM, first compound 10 µM): 28.4%; viability, T/C (second compound 10 µM, first compound 0.316 µM): 32.8%; viability, T/C (second compound 10 µM, first compound 1 µM): 31.1%; viability, T/C (second compound 10 µM, first compound 3.16 µM): 31.4%; viability, T/C (second compound 10 µM, first compound 10 µM): 27%
CN(C)C/C=C/C(=O)Nc1cc2c(Nc3ccc(F)c(Cl)c3)ncnc2cc1O[C@H]1CCOC1 + CNCc1ccccc1-c1csc(C(C)Nc2nc(C)nc3cc(OC)c(OC)cc23)c1 | > 0.1 | > 0.1 | > 0.1 | < 0.000316 | < 0.000316 | 108 | 91.5 | 97.8 | 91.2 | 84.9 | 95.4 | 0.63 | 0.26 | 0.08 | 0.13 | 105 | 108 | 102 | 97 | 98.2 | viability, T/C [16]: 103%; viability, T/C [17]: 103%; viability, T/C [18]: 99.9%; viability, T/C [19]: 107%; viability, T/C [20]: 104%; viability, T/C [21]: 87.7%; viability, T/C [22]: 94.2%; viability, T/C [23]: 0.27%; viability, T/C [24]: 0.17%; viability, T/C [25]: 0.19%; viability, T/C [26]: 0.41%; viability, T/C [27]: 0.08%; viability, T/C [28]: 0.07%; viability, T/C [29]: 0.07%; viability, T/C [30]: 0.08%
Cn1ncnc1[C@H]1c2n[nH]c(=O)c3cc(F)cc(c23)N[C@@H]1c1ccc(F)cc1 + CNCc1ccccc1-c1csc(C(C)Nc2nc(C)nc3cc(OC)c(OC)cc23)c1 | > 0.1 | > 0.1 | > 0.1 | < 0.000316 | < 0.000316 | 90.4 | 86.4 | 84.3 | 76.3 | 72.1 | 64.9 | 0.1 | 0.16 | 0.08 | 0.13 | 102 | 98 | 99.7 | 91.3 | 102 | viability, T/C [16]: 102%; viability, T/C [17]: 90.6%; viability, T/C [18]: 93.9%; viability, T/C [19]: 77.5%; viability, T/C [20]: 64.6%; viability, T/C [21]: 73.2%; viability, T/C [22]: 71.4%; viability, T/C [23]: 0.11%; viability, T/C [24]: 0.09%; viability, T/C [25]: 0.09%; viability, T/C [26]: 0.08%; viability, T/C [27]: 0.07%; viability, T/C [28]: 0.07%; viability, T/C [29]: 0.08%; viability, T/C [30]: 0.07%
CC(=O)Nc1cccc(-n2c(=O)n(C3CC3)c(=O)c3c(Nc4ccc(I)cc4F)n(C)c(=O)c(C)c32)c1 + COc1cc2nc(C)nc(NC(C)c3cc(N)cc(C(F)(F)F)c3)c2cc1OC1CCOC1 | < 0.0001 | < 0.0001 | < 0.0001 | < 0.0001 | < 0.0001 | 5.51 | – | 4.76 | – | 4.86 | – | 4.65 | – | 3.2 | – | 12.7 | 8.13 | 7.1 | 6.58 | 10.8 | viability, T/C (second compound 0.1 µM, first compound 0.0001 µM): 26.5%; viability, T/C (second compound 0.316 µM, first compound 0.0001 µM): 19.8%; viability, T/C [16]: 8.06%; viability, T/C [17]: 7.58%; viability, T/C [18]: 6.23%; viability, T/C (second compound 1 µM, first compound 0.0001 µM): 18%; viability, T/C [19]: 8.51%; viability, T/C [20]: 7.77%; viability, T/C [21]: 6.73%; viability, T/C [22]: 5.93%; viability, T/C (second compound 3.16 µM, first compound 0.0001 µM): 14.4%; viability, T/C [23]: 11%; viability, T/C [24]: 8.06%; viability, T/C [25]: 5.6%; viability, T/C [26]: 5.05%; viability, T/C (second compound 10 µM, first compound 0.0001 µM): 5.99%; viability, T/C [27]: 4.73%; viability, T/C [28]: 4.46%; viability, T/C [29]: 3.12%; viability, T/C [30]: 4.29%
